In patent publication US20260097047A1, “Small molecule inhibitors of the ribosome biogenesis factor NVL2” (Board of Regents, The University of Texas System, priority 2023, published 2026):
Where two headings read alike, the source gives them in different places.

What was measured:
NVL-AID = experiment: Viability of NVL^AID/AID cells on auxin-induced NVL degradation; format: cell-based, human
Source text: To study the effect of NVL depletion, we engineered a C-terminal FLAG-epitope auxin-inducible degron (AID) tag into NVL in cells that also express the plant E3 ligase TIR1.

HCT116 cells = experiment: Cell viability assay (CellTiter-Glo, 72 hours) in HCT116 human colorectal cancer cells; format: cell-based; details: Homo sapiens, HCT-116
How it was run: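 2,000 cells/well adhered overnight, then compound added by digital dispenser with DMSO normalized to 0.5%. Viability read after 72 h at 37 °C by ATP-based CellTiter-Glo luminescence. IC50 from ten-point curves baseline-corrected to vehicle, five-parameter asymmetric least-squares fit.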

HCT116 NVL^P307T cells = experiment: Cell viability in compound-resistant HCT116 NVL^P307T cells; format: cell-based, human
Source text: Assessing the ability of NVL2 inhibitors to selectively kill WT versus NVL2^mut HCT116, block ribosome biogenesis and induce p53. We evaluate analogs in the colorectal cancer cell line HCT116 and already available compound-resistant clones. One clone has a mutation in the compound binding site (NVL2^R403W) and another clone (NVL2^P307T) has a mutation distant from the binding site that confers resistance through an unknown effect. Based on our results, analogs that kill HCT116 cells via NVL2 inhibition (on-target) have reduced potency in compound-resistant HCT116 mutant clones. Our analogs have been counter-screened against the NVL2 compound-resistant mutant clones with fold resistance range between 10-100 fold (most analogs 20-50 fold). This counter screen provides a strategy for identifying off-target toxins.
From whole exome sequencing, we identified variants that were acquired during IAA-induced mutagenesis with the hypothesis that genes related to resistance will be mutated in multiple clones. Two genes contained acquired variants in at least 3 of the 15 selected clones: TERT, mutated in 3 of 15 clones, and NVL, mutated in all 15 clones. […] In sum, 57 out of 59 unique clones harbored NVL mutations. The majority of mutations clustered within the D1 AAA+ ATPase domain and frequently affecting the same codons. To test whether these mutations are sufficient for MM017 resistance, we used CRISPR-Cas9 to knock-in two of the most resistant mutations (NVL^P307T, NVL^R403W) and a mutation with intermediate resistance (NVL^H304R). Transfection of cells with sgRNAs targeting these NVL residues in addition to a mutation-encoding repair template yielded an increased rate of resistance when compared to mock treatments.
(§1) HCT116 cells were transfected with TransIT-LT (Mirus #MIR2304) according to manufacturer's protocol with a guide RNA (either mock or NVL targeting) in the px330 vector (Addgene, #42230), and 10 nM single stranded deoxyoligonucleotide encoding a specific NVL mutation (see below for specific sequences). 72 hours after transfection, cells were selected by MM017 treatment. The resulting cells were evaluated by cresyl violet staining or collected and the relevant NVL mutations were analyzed by either amplicon or sanger sequencing.
Cell viability assay: In 96-well assay plates (Corning #2903), 2,000 cells were plated per well in 100 μL of medium and allowed to adhere overnight. The next day, compounds suspended in DMSO were dispensed to the assayed wells using a D300e Digital Dispenser (Tecan). All wells were normalized to 0.5% DMSO. 72 hours after incubation at 37° C. in 5% CO2, cell viability was assayed using an ATP-based luminescent viability assay, CellTiter-Glo (Promega #G8462). Substrate was mixed 1:1 with phosphate-buffered saline (PBS) supplemented with 1% Triton X-100, and 40 μL of this mixture was added to the assay wells. Plates were shaken on a microplate shaker for 10 minutes at room temperature. Luminescence (CellTiter-Glo) was recorded using a Synergy 2 microplate reader (BioTek). In Prism 9 software (GraphPad), ten-point dose response curves were plotted with baseline-correction to the vehicle control well, and IC50 values were calculated by curve fitting using asymmetric (five parameter), least squares fit.

NVL = molecular target: T1, NVL (Homo sapiens, UniProt O15381); experiment: Photo-crosslinking, affinity purification and probe displacement of NVL in cells; format: binding; set-up: endogenous in cells
T1 sequence (O15381 1-856): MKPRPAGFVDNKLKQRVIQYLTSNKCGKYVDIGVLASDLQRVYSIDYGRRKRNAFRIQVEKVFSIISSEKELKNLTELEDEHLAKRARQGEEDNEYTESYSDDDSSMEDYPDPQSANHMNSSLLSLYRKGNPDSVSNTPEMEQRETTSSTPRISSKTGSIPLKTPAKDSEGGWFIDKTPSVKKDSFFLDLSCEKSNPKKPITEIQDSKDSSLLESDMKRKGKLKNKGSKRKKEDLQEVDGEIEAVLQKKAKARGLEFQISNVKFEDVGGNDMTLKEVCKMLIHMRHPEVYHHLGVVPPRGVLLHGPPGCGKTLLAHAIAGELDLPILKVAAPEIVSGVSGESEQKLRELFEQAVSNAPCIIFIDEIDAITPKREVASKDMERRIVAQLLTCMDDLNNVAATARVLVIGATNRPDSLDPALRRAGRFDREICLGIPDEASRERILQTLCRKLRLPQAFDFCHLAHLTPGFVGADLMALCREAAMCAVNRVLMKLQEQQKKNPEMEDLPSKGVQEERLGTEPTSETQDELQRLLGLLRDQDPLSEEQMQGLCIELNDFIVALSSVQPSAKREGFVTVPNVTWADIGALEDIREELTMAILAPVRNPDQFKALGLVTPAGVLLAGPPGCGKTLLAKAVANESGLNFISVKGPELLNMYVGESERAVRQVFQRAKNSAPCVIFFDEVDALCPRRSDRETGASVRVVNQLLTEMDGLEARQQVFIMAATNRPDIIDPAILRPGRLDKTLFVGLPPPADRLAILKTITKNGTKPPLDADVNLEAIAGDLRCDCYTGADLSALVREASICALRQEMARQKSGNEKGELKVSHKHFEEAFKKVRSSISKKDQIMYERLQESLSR
Source text: To test whether NVL2 mutations prevent compound binding, we synthesized MM0514, a crosslinker derivative of MM017. MM0514 contains an aryl azide, and thus is capable of covalently modifying target proteins following exposure to UV light. MM0514 also contains an alkyne group providing a “handle” to purify bound proteins using click chemistry. Critically, MM0514 retains on-target activity to HCT116 cells since NVL2^R403W mutant cells are resistant. We crosslinked either parental or NVL2^R403W HCT116 cells to MM0514 and analyzed NVL2 binding. […] To characterize the binding site, we solved the cryo-EM structure of NVL2 with MM017. MM017 binds to a single site in the asymmetric hexamer near the D subunit. Consistent with our binding data, the mutations map near the binding site, including R403, which is mutated to tryptophan in a resistant clone and predicted to prevent binding of MM017 or related analogs. The cryo-EM structure of NVL2 with MM017 provides further evidence of target identification and also a tool for optimizing a bioavailable compound.
To assess whether MM017 binds directly to NVL in cells, we used a MM017 crosslinker (Probe compound (2), Table A) that is UV-activatable and contains an alkyne that can be coupled to biotin for affinity purification. […]

cleaved caspase-3 = experiment: Cleaved caspase-3 (apoptosis), HCT116 control and p53 KO cells; format: cell-based, human
Source text: The upregulation of p53 and its effector p21 can arrest cell growth or induce cell death through apoptosis. […] Next, we addressed whether cell death was mediated by an apoptotic pathway by assaying for cleaved caspase-3, a bona fide marker of apoptosis.

902 cancer cell lines = experiment: PRISM screen across 902 cancer cell lines; format: cell-based; details: 902 cancer cell lines, 1,215 compounds
Source text: (§2) Inhibition of 60S ribosome biogenesis is known to induce the stability and upregulation of p53, which could serve as a potential pharmacodynamics marker for MM017 in HCT116 cells. […] We used PRISM (Broad Institute) to evaluate the selectivity of MM017 across 902 cancer cell lines and then correlated this selectivity to 1,215 clinical and pre-clinical compounds in the PRISM database. […] These observations indicate that oxaliplatin and carmofur, like MM017, target ribosome biogenesis.
To nominate genetic predictors of MM017 sensitivity across different cancer types, we performed a PRISM screen across 902 cancer cell lines with known genotypes (31). […] These findings are consistent with the isogenic CRISPR screen and indicate that p53 is a critical effector for MM017 in cancer cells from multiple lineages and with differing genotypes.

p53 and p21 = p53 and p21 protein levels in HCT116 cells; format: cell-based, human
Source text: as §2

[1] = system: serine 15 phosphorylated p53; experiment: p53 serine 15 phosphorylation (DNA damage response marker); details: MM017 up to 10 μM
Source text: A biochemical marker for activation of the DNA damage response is phosphorylation of serine 15 of p53, which results in increased p53 protein (41). Thus, we compared the impact of MM017, oxaliplatin, and CX-5461 on both p53 upregulation and p53 serine 15 phosphorylation.

HCT116 NVL^R403W cells = experiment: Cell viability counter-screen in compound-resistant HCT116 NVL^R403W cells; format: cell-based, human; details: NVL^P307T, NVL^R403W or NVL^H304R cells
Protocol: Design and synthesis of benzothiazepine-based NVL inhibitors. […] Analogs were evaluated against the colorectal cancer cell line HCT116, and counter-screened against a compound resistant NVL2^R403W clone. Cytotoxicity in wild-type HCT116 was determined. […] Initial SAR focused on exploring the replacement of the furan ring of initial dibenzothiazepinone hit MM017. We first explored a wide variety of mono- and di-substituted phenyl rings, including a broad spectrum of functionality (F, Cl, alkyl, alkoxy, fluoroalkoxy, CN, formamide, S(O) Me, carboxyl, . . . ). […]
as §1, with “72 hours after transfection, cells were selected by MM017 treatment.” left out
Cell viability assay: In 96-well assay plates (Corning #2903), 2,000 cells were plated per well in 100 μL of medium and allowed to adhere overnight. […] Luminescence (CellTiter-Glo) was recorded using a Synergy 2 microplate reader (BioTek). […]

[2] = system: p53 KO and p21 KO HCT116 cells; experiment: Growth competition of p53 or p21 knockout versus control HCT116 cells; format: cell-based, human
Source text: To better understand how inhibition of NVL by MM017 leads to cell death, we performed a genome wide pooled CRISPR/Cas9 knockout screen in HCT116 cells using a library of guide RNAs targeting 19,114 genes. Cells were pulsed intermittently with vehicle or MM017 over 21 days, at which point MM017 treated cells had undergone 9.79 fewer population doublings. Massively parallel sequencing of PCR products amplified from genomic DNA was used to determine relative levels of sgRNA sequences to infer the relative impact of each gene on compound sensitivity. […] To confirm whether p53 and p21 are required for the anti-proliferative activity of MM017, we performed a growth competition experiment between cells expressing ZsGreen with either p53 or p21 knockout (KO) and control cells expressing mCherry. Without treatment, the ratio between green and red cells was unchanged over time.

[3] = system: HCT116 control and p53 KO cells; experiment: Cell death by loss in membrane permeability, HCT116 control and p53 KO cells; format: cell-based, human; details: five-day treatment

O=C(O)Cc1c[nH]c2ccc(-c3ccccc3)cc12 [Ph-IAA, 5-Phenyl-indole-3-acetic acid]
viability of NVL^AID/AID cells (NVL-AID): reduced viability in a dose-dependent manner

C#CCOCCN1C(=O)c2ccccc2Sc2cc(NC(=O)c3ccc(N=[N+]=[N-])cc3)ccc21 [Probe compound 2, 4-Azido-N-(11-oxo-10-(2-(prop-2-yn-1-yloxy)ethyl)-10, 11-dihydro-dibenzo[b,f][1,4]thiazepin-7-yl)benzamide]
IC50 (HCT116 cells; read-out: IC50, proliferation of HCT116 cells): 470 nM
resistance of NVL^P307T cells (HCT116 NVL^P307T cells): comparatively resistant
NVL crosslinked to / purified with probe (NVL; UV light): only detected in conditions that included both the MM017-probe and UV light

CN[C@@H]1C[C@H]2O[C@@](C)([C@@H]1OC)n1c3ccccc3c3c4c(c5c6ccccc6n2c5c31)C(=O)NC4 [Staurosporine, reference compound]
cleaved caspase-3 (cleaved caspase-3): robust caspase activation in both control and p53 KO cells

CCCCCCNC(=O)n1cc(F)c(=O)[nH]c1=O [carmofur]
correlation (r) of selectivity with MM017 (902 cancer cell lines): 0.53

COCCN1C(=O)c2ccccc2Sc2cc(NC(=O)c3ccc(OC)cc3)ccc21 [compound 3]
IC50 (HCT116 cells; read-out: IC50s (cellular activity of MM017 derivatives)): 360 nM
displacement of MM017-probe from NVL (NVL; NVL-FLAG knock-in cell line, increasing doses): more effectively displaced MM017-probe

O=C1[O][Pt]2([NH][C@@H]3CCCC[C@H]3[NH]2)[O]C1=O [oxaliplatin, reference compound]
p53 levels in parental HCT116 cells (p53 and p21): dose-dependent increase in the levels of p53
serine 15 phosphorylated p53 [1]: dose-dependent increase in phosphorylated p53

CC(=O)O[C@H]1C(=O)[C@@]2(C)[C@H]([C@H](OC(=O)c3ccccc3)[C@]3(O)C[C@H](OC(=O)[C@H](O)[C@@H](NC(=O)c4ccccc4)c4ccccc4)C(C)=C1C3(C)C)[C@]1(OC(C)=O)CO[C@@H]1C[C@@H]2O [paclitaxel, reference compound]
sensitivity of NVL mutant cells compared to NVL^WT (HCT116 NVL^R403W cells): equally sensitive
enrichment of p53 or p21 KO cells in growth competition [2]: no competitive advantage
cell death in p53 KO versus control cells [3]: cell death irrespective of p53
